Target: T1, BRD4 (Homo sapiens, UniProt O60885)
T1 construct: fused on or other part: GST tag, fused on for capture by the AlphaLISA Glutathione Acceptor Beads
Assay: BRD4-H4 tetraacetylated Peptide Inhibition AlphaScreen
Type: binding
Settings: GST-BRD4-BD1 (aa 44-168) or GST-BRD4-BD2 (aa 333-460) with biotinylated Acetyl-Histone H4 peptide; table does not state which bromodomain
Experimental: Biological Methods BRD4-H4 tetraacetylated Peptide Inhibition AlphaScreen
Compounds are diluted in serial dilution 1:5 in assay buffer from 10 mM stock in DMSO (100 μM start concentration) in white OptiPlate-384 (PerkinElmer). A mix consisting of 15 nM GST-BRD4-BD1 protein (aa 44-168) or 150 nM GST-BRD4-BD2 (aa 333-460) and 15 nM biotinylated Acetyl-Histone H4 (LysS, 8, 12, 16) peptide is prepared in assay buffer (50 mM HEPES pH=7.4; 25 mM NaCl; 0.05% Tween 20; 0.1% bovine serum albumin (BSA); 10 mM dithiothreitol (DTT)). 6 μl of the mix is added to the compound dilutions. Subsequently, 6 μl of premixed AlphaLISA Glutathione Acceptor Beads and AlphaScreen Streptavidin Donor Beads from PerkinElmer (in assay buffer at a concentration of 10 μg/ml each) are added and the samples are incubated for 30 min at RT in the dark (shaking 300 rpm). Afterwards, the signal is measured in a PerkinElmer Envision HTS
Multilabel Reader using the AlphaScreen protocol from PerkinElmer. Each plate contains negative controls where biotinylated Acetyl-Histone H4 peptide and GST-BRD4-BD1 or GST-BRD4-BD2 are left out and replaced by assay buffer. Negative control values are entered as low basis value when using the software GraphPad Prism for calculations. Furthermore, a positive control (probe molecule JQ1+ with protein/peptide mix) is pipetted. Determination of IC50 values are carried out using GraphPad Prism 3.03 software (or updates thereof).

IC50 [nM]	Structure (SMILES)
43	Cc1noc(C)c1-c1ccc2c(c1)C(c1ccccc1)N(CCCN(C)C)C2=O (centres unmarked) [Example 3, 2-(3-Dimethylamino-propyl)-5-(3,5-dimethyl-isoxazol-4-yl)-3-phenyl-2,3-dihydro-isoindol-1-one]
275	Cc1noc(C)c1-c1ccc2c(c1)C(C)(c1ccccc1)C(=O)N2C (centres unmarked) [Example 19, 5-(3,5-Dimethyl-isoxazol-4-yl)-1,3-dimethyl-3-phenyl-1,3-dihydro-indol-2-one]
65	Cc1noc(C)c1-c1ccc2c(c1)C(c1ccccc1)N(CCN(C)C)C2=O (centres unmarked) [Example 4, 2-(2-Dimethylamino-ethyl)-5-(3,5-dimethyl-isoxazol-4-yl)-3-phenyl-2,3-dihydro-isoindol-1-one]
57	Cc1noc(C)c1-c1ccc2c(c1)C(c1ccccc1)N(C1CCN(C)CC1)C2=O (centres unmarked) [Example 2, 5-(3,5-Dimethyl-isoxazol-4-yl)-2-(1-methyl-piperidin-4-yl)-3-phenyl-2,3-dihydro-isoindol-1-one]
14	Cc1noc(C)c1-c1ccc2c(c1)[C@H](c1ccccc1)N(C)C2=O [Example 9, (S)-5-(3,5-Dimethyl-isoxazol-4-yl)-2-methyl-3-phenyl-2,3-dihydro-isoindol-1-one]
55	Cc1noc(C)c1-c1ccc2c(c1)C(c1ccccc1)N(C)C2=O (centres unmarked) [Example 8, 5-(3,5-Dimethyl-isoxazol-4-yl)-2-methyl-3-phenyl-2,3-dihydro-isoindol-1-one]
72	Cc1noc(C)c1-c1ccc2c(c1)C1(c3ccccc3)OCCN1C2=O (centres unmarked) [Example 14, 8-(3,5-Dimethyl-isoxazol-4-yl)-9b-phenyl-2,3-dihydro-9bH-oxazolo[2,3-a]isoindol-5-one]
193	Cc1noc(C)c1-c1ccc2c(c1)C(c1ccccc1)OC2=O (centres unmarked) [Example 13, 5-(3,5-Dimethyl-isoxazol-4-yl)-3-phenyl-3H-isobenzofuran-1-one]
350	COc1c(-c2c(C)noc2C)ccc2c1C(c1ccccc1)OC2=O (centres unmarked) [Example 16, 5-(3,5-Dimethyl-isoxazol-4-yl)-4-methoxy-3-phenyl-3,1-isobenzofuran-1-one]
1080	Cc1noc(C)c1-c1ccc2c(c1C)C(c1ccccc1)OC2=O (centres unmarked) [Example 17, 5-(3,5-Dimethyl-isoxazol-4-yl)-4-methyl-3-phenyl-3H-isobenzofuran-1-one]
36	Cc1noc(C)c1-c1ccc2c(c1)C1(c3ccccc3)OCCCN1C2=O (centres unmarked) [Example 15, 9-(3,5-Dimethyl-isoxazol-4-yl)-10b-phenyl-3,4-dihydro-2H,10bH-[1,3]oxazino[2,3-a]isoindol-6-one]
1090	Cc1noc(C)c1-c1ccc2c(c1)C(C1CCC3(CCC3)CC1)N(C)C2=O (centres unmarked) [Example 7, 5-(3,5-Dimethyl-isoxazol-4-yl)-2-methyl-3-spiro[3.5]non-7-yl-2,3-dihydro-isoindol-1-one]
2490	Cc1cc(-c2c(C)noc2C)cc2c1C(=O)N(C)C2c1ccccc1 (centres unmarked) [Example 11, 5-(3,5-Dimethyl-isoxazol-4-yl)-2,7-dimethyl-3-phenyl-2,3-dihydro-isoindol-1-one]
242	Cc1noc(C)c1-c1ccc2c(c1)C(C)(c1ccccc1)C(=O)N2c1cccnc1 (centres unmarked) [Example 20, 5-(3,5-Dimethyl-isoxazol-4-yl)-3-methyl-3-phenyl-1-pyridin-3-yl-1,3-dihydro-indol-2-one]
380	COc1cc(F)cc(C2c3cc(-c4c(C)noc4C)ccc3C(=O)N2C)c1 (centres unmarked) [Example 1, 5-(3,5-Dimethyl-isoxazol-4-yl)-3-(3-fluoro-5-methoxy-phenyl)-2-methyl-2,3-dihydro-isoindol-1-one]
229	Cc1noc(C)c1-c1ccc2c(c1)C(c1cc(F)cc(F)c1)N(C)C2=O (centres unmarked) [Example 5, 3-(3,5-Difluoro-phenyl)-5-(3,5-dimethyl-isoxazol-4-yl)-2-methyl-2,3-dihydro-isoindol-1-one]
75	Cc1noc(C)c1-c1ccc2c(c1)C(c1ccccc1)N(C(C)C)C2=O (centres unmarked) [Example 12, 5-(3,5-Dimethyl-isoxazol-4-yl)-2-isopropyl-3-phenyl-2,3-dihydro-isoindol-1-one]

Second part, the compound before the results:

Structure (SMILES)	IC50 [nM]
Cc1noc(C)c1-c1ccc2c(c1)C(O)(c1ccccc1CN1CCOCC1)C(=O)N2 (centres unmarked) [Example 23, 5-(3,5-Dimethyl-isoxazol-4-yl)-3-hydroxy-3-(2-morpholin-4-ylmethyl-phenyl)-1,3-dihydro-indol-2-one]	176
Cc1noc(C)c1-c1ccc2c(c1)C(C)(c1ccccc1)N(C)C2=O (centres unmarked) [Example 10, 5-(3,5-Dimethyl-isoxazol-4-yl)-2,3-dimethyl-3-phenyl-2,3-dihydro-isoindol-1-one]	38
Cc1noc(C)c1-c1ccc2c(c1)C(C1CCCCC1)N(C)C2=O (centres unmarked) [Example 6, 3-Cyclohexyl-5-(3,5-dimethyl-isoxazol-4-yl)-2-methyl-2,3-dihydro-isoindol-1-one]	43
Cc1noc(C)c1-c1ccc2c(c1)C(O)(C1CCCCC1)C(=O)N2 (centres unmarked) [Example 30, 3-cyclohexyl-5-(3,5-dimethyl-isoxazol-4-yl)-3-hydroxy-1,3-dihydro-indol-2-one]	196
Cc1cncc(C2(O)C(=O)Nc3ccc(-c4c(C)noc4C)cc32)c1 (centres unmarked) [Example 35, 5-(3,5-Dimethyl-isoxazol-4-yl)-3-hydroxy-3-(5-methyl-pyridin-3-yl)-1,3-dihydro-indol-2-one]	1040
Cc1ccccc1C1(O)C(=O)Nc2ccc(-c3c(C)noc3C)cc21 (centres unmarked) [Example 33, 5-(3,5-Dimethyl-isoxazol-4-yl)-3-hydroxy-3-o-tolyl-1,3-dihydro-indol-2-one]	1060
Cc1noc(C)c1-c1ccc2c(c1)C(O)(C1CCCC1)C(=O)N2 (centres unmarked) [Example 27, 3-Cyclopentyl-5-(3,5-dimethyl-isoxazol-4-yl)-3-hydroxy-1,3-dihydro-indol-2-one]	698
Cc1noc(C)c1-c1ccc2c(c1)C(O)(c1ccccc1)C(=O)N2 (centres unmarked) [Example 21, 5-(3,5-Dimethyl-isoxazol-4-yl)-3-hydroxy-3-phenyl-1,3-dihydro-indol-2-one]	259
Cc1noc(C)c1-c1ccc2c(c1)C(C)(c1ccccc1)C(=O)N2 (centres unmarked) [Example 18, 5-(3,5-Dimethyl-isoxazol-4-yl)-3-methyl-3-phenyl-1,3-dihydro-indol-2-one]	54
Cc1noc(C)c1-c1ccc2c(c1)C(O)(c1ccc(Cl)cc1)C(=O)N2 (centres unmarked) [Example 25, 3-(4-Chloro-phenyl)-5-(3,5-dimethyl-isoxazol-4-yl)-3-hydroxy-1,3-dihydro-indol-2-one]	295
Cc1noc(C)c1-c1ccc2c(c1)C(O)(c1ccccn1)C(=O)N2 (centres unmarked) [Example 32, 5-(3,5-Dimethyl-isoxazol-4-yl)-3-hydroxy-3-pyridin-2-yl-1,3-dihydro-indol-2-one]	332
Cc1noc(C)c1-c1ccc2c(c1)C(O)(c1cccnc1)C(=O)N2 (centres unmarked) [Example 31, 5-(3,5-Dimethyl-isoxazol-4-yl)-3-hydroxy-3-pyridin-3-yl-1,3-dihydro-indol-2-one]	395
Cc1noc(C)c1-c1ccc2c(c1)[C@](O)(c1ccccc1)C(=O)N2 [Example 22, 5-(3,5-Dimethyl-isoxazol-4-yl)-3-hydroxy-3-phenyl-1,3-dihydro-indol-2-one]	48
Cc1noc(C)c1-c1ccc2c(c1)C(O)(c1cccs1)C(=O)N2 (centres unmarked) [Example 26, 5-(3,5-Dimethyl-isoxazol-4-yl)-3-hydroxy-3-thiophen-2-yl-1,3-dihydro-indol-2-one]	320
Cc1noc(C)c1-c1ccc2c(c1)C(O)(c1ccc3c(c1)OCO3)C(=O)N2 (centres unmarked) [Example 29, 3-Benzo[1,3]dioxol-5-yl-5-(3,5-dimethyl-isoxazol-4-yl)-3-hydroxy-1,3-dihydro-indol-2-one]	541
Cc1noc(C)c1-c1ccc2c(c1)C(O)(c1ccc(F)c(F)c1)C(=O)N2 (centres unmarked) [Example 28, 3-(3,4-Difluoro-phenyl)-5-(3,5-dimethyl-isoxazol-4-yl)-3-hydroxy-1,3-dihydro-indol-2-one]	203
Cc1noc(C)c1-c1ccc2c(c1)[C@](O)(c1ccccc1CN1CCOCC1)C(=O)N2 [Example 24, 5-(3,5-Dimethyl-isoxazol-4-yl)-3-hydroxy-3-(2-morpholin-4-ylmethyl-phenyl)-1,3-dihydro-indol-2-one]	41
Cc1noc(C)c1-c1ccc2c(c1)C(O)(C1CCOCC1)C(=O)N2 (centres unmarked) [Example 34, 5-(3,5-Dimethyl-isoxazol-4-yl)-3-hydroxy-3-(tetrahydro-pyran-4-yl)-1,3-dihydro-indol-2-one]	1570

Source: patent publication US9102684B2, “Indolinone analogues” (Boehringer Ingelheim International GmbH, priority 2013, dated 2015)
